Results as given in patent US9018173B2, “Materials and methods for suppressing inflammatory and neuropathic pain” (Indiana University Research and Technology Corp., priority 2010, dated 2015).
“Also recorded” adds a separate entry of the source. Residues, ends and D or L forms follow the SMILES beside them.

How the values were obtained:
[1] = Biodistribution after i.p. injection (dot blot, FITC fluorescence); settings: 25 mg/kg i.p.
[2] = tested on: CaV2.2 surface expression in CAD cells; assay: CaV2.2 surface expression in CAD cells (immunocytochemistry, surface biotinylation); assay type: cell-based
Procedure: Catecholamine A Differentiated (CAD) cells. CAD cells were grown at 37° C. and in 5% CO2 (Sarstedt, Newton, N.C.) in Ham's F12/EMEM medium (GIBCO, Grand Island, N.Y.), supplemented with 8% fetal bovine serum (FBS; Sigma, St. Louis, Mo.) and 1% penicillin/streptomycin ([…], 10,000 U/ml penicillin G sodium and 10,000 μg/ml streptomycin sulfate). Cells were passaged every 6-7 days at a 1:25 dilution.
Transient transfection. Adherent cultures were transfected with cDNAs using Lipofectamine 2000 (Invitrogen) as described previously. About 2-3% transfection efficiencies in hippocampal neurons was achieved routinely, 35-40% in DRG, and 75-80% in CAD cells transfected with this method. Typically, cultured cells were transfected with equal amounts of different cDNA constructs and experiments performed two days later.
Cell Surface Biotinylation. Biotinylation was performed as described. […]
Immunocytochemistry. […] Images were acquired on a Nikon Ti swept-field confocal microscope using a 60×, 1.4 NA lens and standard FITC/Texas red fluorescence cubes with a cooled Cascade 512B digital camera (Photometrics, Tucson, Ariz.). […]

[3] = biological target: T1, CRMP-2-CaV2.2 interaction (Rattus norvegicus, UniProt Q02294); assay: Immunoprecipitation of CRMP-2/CaV2.2 in the presence of peptides; assay type: binding; settings: spinal cord lysates or rat brains; peptides 10 μM
T1 construct: that could be captured from rat brains; from tissue; host or cells: rat brain / spinal cord lysates (CaV2.2)
T1 sequence (Q02294 whole entry): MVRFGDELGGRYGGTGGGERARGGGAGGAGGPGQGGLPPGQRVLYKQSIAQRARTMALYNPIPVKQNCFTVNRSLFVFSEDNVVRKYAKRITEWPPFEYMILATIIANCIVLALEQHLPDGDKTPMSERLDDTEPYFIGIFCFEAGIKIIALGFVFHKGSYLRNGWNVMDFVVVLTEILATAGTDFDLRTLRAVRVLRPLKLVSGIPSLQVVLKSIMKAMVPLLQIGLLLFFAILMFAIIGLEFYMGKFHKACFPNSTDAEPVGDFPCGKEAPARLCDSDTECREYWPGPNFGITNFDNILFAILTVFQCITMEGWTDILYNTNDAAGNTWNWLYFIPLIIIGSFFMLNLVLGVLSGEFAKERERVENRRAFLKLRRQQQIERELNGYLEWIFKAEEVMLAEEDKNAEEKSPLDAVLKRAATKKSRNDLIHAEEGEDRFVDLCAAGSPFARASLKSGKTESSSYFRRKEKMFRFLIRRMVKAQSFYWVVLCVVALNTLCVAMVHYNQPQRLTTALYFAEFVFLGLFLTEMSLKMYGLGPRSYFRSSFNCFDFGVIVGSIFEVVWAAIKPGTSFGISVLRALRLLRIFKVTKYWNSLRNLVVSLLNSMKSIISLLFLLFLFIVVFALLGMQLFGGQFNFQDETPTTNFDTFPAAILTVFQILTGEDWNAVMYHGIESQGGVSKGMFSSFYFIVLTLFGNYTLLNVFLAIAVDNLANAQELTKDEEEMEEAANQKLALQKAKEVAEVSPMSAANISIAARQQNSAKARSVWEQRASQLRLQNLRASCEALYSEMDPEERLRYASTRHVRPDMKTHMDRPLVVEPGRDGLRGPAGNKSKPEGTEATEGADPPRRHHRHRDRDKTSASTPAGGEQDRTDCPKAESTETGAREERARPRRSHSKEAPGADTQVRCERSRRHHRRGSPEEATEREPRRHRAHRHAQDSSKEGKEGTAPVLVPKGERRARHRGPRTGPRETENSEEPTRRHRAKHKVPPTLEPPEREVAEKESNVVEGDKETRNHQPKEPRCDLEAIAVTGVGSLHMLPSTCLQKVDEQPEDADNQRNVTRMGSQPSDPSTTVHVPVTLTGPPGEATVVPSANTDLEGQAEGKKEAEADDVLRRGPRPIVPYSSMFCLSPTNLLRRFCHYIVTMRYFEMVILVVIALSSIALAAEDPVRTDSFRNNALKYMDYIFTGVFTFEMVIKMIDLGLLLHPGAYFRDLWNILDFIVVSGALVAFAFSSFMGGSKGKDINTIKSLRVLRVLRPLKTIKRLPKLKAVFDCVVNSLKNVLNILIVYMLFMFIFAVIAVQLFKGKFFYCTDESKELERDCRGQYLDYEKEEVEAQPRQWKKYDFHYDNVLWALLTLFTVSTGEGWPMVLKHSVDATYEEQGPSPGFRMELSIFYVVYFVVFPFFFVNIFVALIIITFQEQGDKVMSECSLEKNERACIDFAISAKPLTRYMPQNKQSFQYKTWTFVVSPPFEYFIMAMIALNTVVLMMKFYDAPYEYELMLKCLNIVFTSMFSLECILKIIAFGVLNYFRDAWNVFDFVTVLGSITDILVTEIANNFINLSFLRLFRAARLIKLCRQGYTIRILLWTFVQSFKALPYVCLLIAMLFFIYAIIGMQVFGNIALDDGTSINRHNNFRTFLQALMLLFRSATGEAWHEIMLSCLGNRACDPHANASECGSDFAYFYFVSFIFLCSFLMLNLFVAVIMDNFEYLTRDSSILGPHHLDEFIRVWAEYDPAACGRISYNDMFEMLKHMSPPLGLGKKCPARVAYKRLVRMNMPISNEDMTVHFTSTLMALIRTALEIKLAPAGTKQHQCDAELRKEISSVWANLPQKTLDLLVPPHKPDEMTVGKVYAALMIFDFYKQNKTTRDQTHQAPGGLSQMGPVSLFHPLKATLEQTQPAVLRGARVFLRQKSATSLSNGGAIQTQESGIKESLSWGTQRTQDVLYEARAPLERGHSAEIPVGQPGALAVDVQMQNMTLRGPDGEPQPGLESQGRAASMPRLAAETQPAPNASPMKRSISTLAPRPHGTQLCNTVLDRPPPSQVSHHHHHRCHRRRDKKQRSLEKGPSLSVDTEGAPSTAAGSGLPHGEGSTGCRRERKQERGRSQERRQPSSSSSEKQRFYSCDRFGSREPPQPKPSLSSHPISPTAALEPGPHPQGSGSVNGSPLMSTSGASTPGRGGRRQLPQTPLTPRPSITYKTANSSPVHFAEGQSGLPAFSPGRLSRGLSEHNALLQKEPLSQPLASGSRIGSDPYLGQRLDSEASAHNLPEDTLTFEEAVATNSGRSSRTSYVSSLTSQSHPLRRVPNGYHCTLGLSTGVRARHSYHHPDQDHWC
T1 sequence (P54287 whole entry partner): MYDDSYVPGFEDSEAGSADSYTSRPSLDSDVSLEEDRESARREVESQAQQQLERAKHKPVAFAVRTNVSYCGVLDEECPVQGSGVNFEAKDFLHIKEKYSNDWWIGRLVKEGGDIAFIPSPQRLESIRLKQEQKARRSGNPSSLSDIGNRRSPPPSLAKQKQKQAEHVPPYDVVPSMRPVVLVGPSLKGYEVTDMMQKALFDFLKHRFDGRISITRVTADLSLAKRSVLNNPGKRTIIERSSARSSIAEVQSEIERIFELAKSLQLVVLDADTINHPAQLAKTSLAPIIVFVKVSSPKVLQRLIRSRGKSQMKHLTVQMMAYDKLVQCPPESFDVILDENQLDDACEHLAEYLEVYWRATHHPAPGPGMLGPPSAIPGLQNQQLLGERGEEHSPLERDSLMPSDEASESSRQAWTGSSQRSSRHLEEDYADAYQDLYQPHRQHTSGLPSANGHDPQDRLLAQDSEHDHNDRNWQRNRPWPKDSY
Procedure: Referring now to FIG. 18. […] Peptides (10 μM each) were added for 30 min prior to addition of the CRMP-2-His protein. Representative blot from 12 separate experiments is shown. (FIG. 18.B) In vitro binding of L1-GST and Ct-dis-GST fusion proteins to CRMP-2 in the presence of scramble or CBD3 peptides (10 μM). The purification of the L1 and Ct-dis regions of CaV2.2 has been described by us previously. CRMP-2 bound to L1 and Ct-dis was probed with a CRMP-2 antibody. Representative blot from 4 separate experiments are shown. Similar results were obtained in experiments with spinal cord lysates (FIGS. 18.B and 18D).
Immunoblotting. This was performed as described previously. Rat brain synaptosomes were pre-cleared by a 1-h incubation with 20 μl of a 50% slurry of protein A/G beads (Pierce). The cleared lysate was then incubated overnight with various primary antibodies or rabbit or mouse isotype-specific IgGs (Sigma) as controls. The antibody-captured complexes were recovered with fresh protein A-agarose (for rabbit polyclonal antibodies) or protein A/G-agarose (for mouse monoclonal antibodies) beads (20 μl of original bead slurry/sample) by incubation with lysate/antibody mixture at 4° C. for 2 h. The beads were then washed three times with lysis buffer. Prior to electrophoresis on SDS-polyacrylamide gels, protein samples were boiled in Laemmli sample buffer for 5 min. […]

Row | Compound | tissue distribution (dot blot, anti-TAT antibody) ([1]; 15 min post-injection) | tissue distribution (dot blot, anti-TAT antibody) ([1]; 1 h post-injection) | CaV2.2 localisation on co-expression ([2]; co-expression of CaV2.2 with CBD3 in CAD cells) | surface expression of co-expressed CaV2.2 (surface biotinylation) ([2]; expressed in CAD cells) | CRMP-2-CaV2.2 interaction (immunoprecipitation) [3]
1 | CC(C)C[C@H](NC(=O)CNC(=O)[C@H](CCCNC(=N)N)NC(=O)[C@@H]1CCCN1C(=O)[C@@H](NC(=O)CNC(=O)[C@H](CCCNC(=N)N)NC(=O)[C@H](CC(C)C)NC(=O)[C@H](CCC(=O)O)NC(=O)[C@H](C)NC(=O)[C@H](CC(C)C)NC(=O)[C@H](CCCNC(=N)N)NC(=O)[C@H](CO)NC(=O)[C@H](CCCNC(=N)N)NC(=O)[C@H](C)NC(=O)[C@H](CCCNC(=N)N)NC(=O)[C@H](CCCNC(=N)N)NC(=O)[C@H](CCCNC(=N)N)NC(=O)[C@H](CCC(N)=O)NC(=O)[C@H](CCCNC(=N)N)NC(=O)[C@H](CCCNC(=N)N)NC(=O)[C@H](CCCCN)NC(=O)[C@H](CCCCN)NC(=O)[C@H](CCCNC(=N)N)NC(=O)CNC(=O)[C@@H](N)Cc1ccc(O)cc1)C(C)C)C(=O)O [TAT-CBD3] (H-YGRKKRRQRRRARSRLAELRGVPRGL-OH; N-terminus and C-terminus assumed) | detected in spleen and largely concentrated in lumbar dorsal root ganglion (DRG) and lumbar section of the spinal cord | also detected in kidney, brain, spinal cord and was abundant in the DRG | – | – | –
2 | ARSRLAELRGVPRGL (CBD3) | – | – | almost complete retention of the channel in cytoplasmic aggregates | prevented surface expression | inhibited; also recorded: inhibits the binding between CRMP-2 and CaV2.2
